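Five compound concentrations were applied to cells in 96-well plates for 48 hours; endpoints were derived by simple linear interpolation of the resulting dose-response curve. GI50 = concentration required for 50% inhibition of growth.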 Activity calls are given as the source filed them. Rule as the data show it: active = GI50 up to about 1.1 µM and inactive = higher.

Test systems include A498; COLO 205; HCT-15; HL-60; M14; Malme-3M; NCI-H226; NCI-H460; OVCAR-3; OVCAR-5; RPMI-8226; SF-539; SK-MEL-2; SK-MEL-5; SNB-19; UACC-257; UACC-62; LOX IMVI.
Assay in all cases: NCI-60 cell line screen, 48 h

On to `CCC/C=C\C=C\C1(NS(=O)(=O)c2ccc(C)cc2)CCC(C(C)(C)C)CC1` (centres undefined), for which the GI50 is 21.2 µM (inactive) with A498; 14.5 µM (inactive) with COLO 205; 17.5 µM with HCT-15; 6.93 µM (inactive) with HL-60; 13.3 µM (inactive) with M14; 14.9 µM (inactive) in the test on Malme-3M. Also, the GI50 was 20.5 µM (inactive) with NCI-H226; 14.6 µM (inactive) with NCI-H460; 7.01 µM (inactive) in the test on OVCAR-3; 21.5 µM (inactive) in the test on OVCAR-5; 7.96 µM (inactive) with RPMI-8226; 35.7 µM (inactive) in the test with SF-539. The GI50 in the test with SK-MEL-2 was 13.5 µM (inactive); with SK-MEL-5, 16.7 µM (inactive); in the test with SNB-19, 35.5 µM (inactive); with UACC-257, 16.8 µM (inactive); in the test on UACC-62, 21.3 µM (inactive).

Consider `O=C1Cc2ccccc2CCc2ccsc21`, for which the GI50 with A498 is > 100 µM (inactive); with COLO 205 it was > 100 µM (inactive); with HCT-15 it was above 100 µM; in the test on HL-60 it was 92.3 µM (inactive); in the test with LOX IMVI, > 100 µM (inactive); with M14, > 100 µM (inactive). For the same compound, the GI50 in the test with Malme-3M is > 100 µM (inactive); in the test with NCI-H226, > 100 µM (inactive); in the test with NCI-H460, > 100 µM (inactive); with OVCAR-3, > 100 µM (inactive); in the test on OVCAR-5, 31.3 µM (inactive); in the test with RPMI-8226, > 100 µM (inactive). Moreover, the GI50 in the test on SF-539, in the test on SK-MEL-2, with SK-MEL-5, in the test with SNB-19 and with UACC-257 was > 100 µM (inactive) in each case.

On to `N#CCCC[Si]12OCCN(CCO1)CCO2`, for which the GI50 in the test with A498, in the test with COLO 205, in the test on HL-60, in the test with Malme-3M, in the test on NCI-H226 and with NCI-H460 was > 100 µM (inactive) throughout. Besides, the GI50 in the test on OVCAR-3, in the test with OVCAR-5, in the test on RPMI-8226, with SF-539, with SK-MEL-2 and in the test with SK-MEL-5 was > 100 µM (inactive) each time. For the same compound, the GI50 with SNB-19, in the test with UACC-257 and in the test on UACC-62 was > 100 µM (inactive) throughout.

With `COC(=O)C(C)(C)/N=C/N(C)C`, the GI50 is > 100 µM (inactive) in the test on A498; > 100 µM (inactive) in the test on COLO 205; above 100 µM with HCT-15; 55.6 µM (inactive) in the test on HL-60; 68.2 µM (inactive) in the test with LOX IMVI; > 100 µM (inactive) with M14. The GI50 with Malme-3M, with NCI-H226, in the test on NCI-H460, with OVCAR-3, with OVCAR-5 and with SF-539 was > 100 µM (inactive) throughout. In addition, the GI50 in the test with SK-MEL-2, in the test with SK-MEL-5, with SNB-19, in the test on UACC-257 and in the test with UACC-62 was > 100 µM (inactive) in each case.

Take `COC(=O)C1=C(c2ccc3c(c2)OCO3)O[C@H](c2cc(OC)c(OC)c(OC)c2)[C@H]1COC(C)=O`: the GI50 in the test on A498 is 0.352 µM (active); in the test with COLO 205, 0.984 µM (active); with HCT-15, 5.68 µM; in the test with HL-60 it was 0.49 µM (active); in the test on LOX IMVI, 8.91 µM (inactive); with M14 it was 1.71 µM (inactive). In addition, the GI50 in the test on Malme-3M was 1.99 µM (inactive); in the test on NCI-H226, 10.4 µM (inactive); in the test with NCI-H460, 4.3 µM (inactive); in the test on OVCAR-3, 1.19 µM (inactive); with OVCAR-5, 41.8 µM (inactive); in the test on RPMI-8226, 11.3 µM (inactive). In addition, the GI50 was 1.99 µM (inactive) with SF-539; 12.6 µM (inactive) in the test on SK-MEL-2; 0.973 µM (active) in the test on SK-MEL-5; 4.4 µM (inactive) in the test on UACC-257; 3.32 µM (inactive) in the test with UACC-62.

Take `Clc1ccccc1C(n1cc(Br)cn1)n1cc(Br)cn1`: the GI50 was 17.1 µM (inactive) with A498; above 10 µM in the test on HCT-15; 14.7 µM (inactive) in the test on HL-60; 17 µM (inactive) with LOX IMVI; 16.3 µM (inactive) with M14; 17.2 µM (inactive) with Malme-3M. In addition, the GI50 with NCI-H226 is > 10 µM (inactive); in the test on NCI-H460, 14.7 µM (inactive); with OVCAR-3, > 10 µM (inactive); in the test with OVCAR-5, 11.4 µM (inactive); in the test on RPMI-8226, 13.6 µM (inactive); in the test with SF-539, > 10 µM (inactive). Also, the GI50 in the test with SK-MEL-2 is 18.2 µM (inactive); in the test on SK-MEL-5, 11 µM (inactive); in the test on SNB-19, 27.4 µM (inactive); with UACC-257, 14.7 µM (inactive); in the test with UACC-62, > 10 µM (inactive).

As to `COc1cc([C@@H]2OC(=O)C3C2C(=O)O[C@H]3c2cc(OC)c(OC)c(OC)c2)cc(OC)c1OC` (some centres undefined), the GI50 in the test with A498 is > 100 µM (inactive); with COLO 205, > 100 µM (inactive); in the test on HCT-15, above 100 µM; with HL-60, > 100 µM (inactive); with LOX IMVI it was > 100 µM (inactive); in the test on M14, > 100 µM (inactive). Moreover, the GI50 is 38.8 µM (inactive) with NCI-H226; > 100 µM (inactive) in the test on NCI-H460; > 100 µM (inactive) in the test with OVCAR-3; > 100 µM (inactive) in the test on RPMI-8226; > 100 µM (inactive) in the test on SF-539; > 100 µM (inactive) in the test with SK-MEL-2. Also, the GI50 in the test with SK-MEL-5, in the test on SNB-19, with UACC-257 and in the test with UACC-62 was > 100 µM (inactive) throughout.

`COc1ccc(S(=O)(=O)N/N=C\c2cc([N+](=O)[O-])cc(I)c2O)c(OC)c1OC`: the GI50 is 29.8 µM (inactive) in the test on A498; 21.4 µM (inactive) in the test on COLO 205; 22.3 µM with HCT-15; 26.6 µM (inactive) in the test with HL-60; 32.5 µM (inactive) in the test with LOX IMVI; 28.4 µM (inactive) with M14. Also, the GI50 with Malme-3M was 27.7 µM (inactive); in the test on NCI-H226, 17.3 µM (inactive); in the test on NCI-H460 it was 33 µM (inactive); in the test with OVCAR-3, 20.7 µM (inactive); with OVCAR-5, 32.4 µM (inactive); in the test on RPMI-8226 it was 26.5 µM (inactive). The GI50 was 21.4 µM (inactive) in the test with SK-MEL-2; 21.2 µM (inactive) in the test with SK-MEL-5; 21.1 µM (inactive) in the test with SNB-19; 26.7 µM (inactive) with UACC-257; 21.9 µM (inactive) in the test with UACC-62.

For the compound `O=C(Nc1ccc(Nc2ccc(NC(=O)c3ccccc3)c3c2C(=O)c2ccccc2C3=O)c2c1C(=O)c1ccccc1C2=O)c1ccccc1`, the GI50 was > 100 µM (inactive) in the test with A498; > 100 µM (inactive) in the test with COLO 205; above 100 µM in the test on HCT-15; > 100 µM (inactive) in the test with HL-60; > 100 µM (inactive) with M14; > 100 µM (inactive) with Malme-3M. Also, the GI50 with NCI-H226, in the test on NCI-H460, with OVCAR-3, in the test on RPMI-8226, in the test on SF-539 and in the test with SK-MEL-2 was > 100 µM (inactive) throughout. In addition, the GI50 with SK-MEL-5, with SNB-19, in the test with UACC-257 and in the test with UACC-62 was > 100 µM (inactive) in each case.

The values are drawn from ChEMBL document CHEMBL1201862, “PubChem BioAssay data set” (2004).
